Measured values from article PMC11206678, “Peptide-Alkoxyamine Drugs: An Innovative Approach to Fight Schistosomiasis: “Digging Their Graves with Their Forks”” (Pathogens, 2024).
Entries after “also recorded” stand apart in the source; their conditions may differ. Where a name gives a salt, the structure may show the parent alone.

Tests used:
[1] = tested on: Schistosoma mansoni adult worms; experiment: Viability of Schistosoma mansoni adult worms in vitro; format: cell-based, Schistosoma mansoni NMRI strain; conditions: 100 μg/mL, 37 °C; for Time to Kill 50% of Parasites / Time to Kill 100% of Parasites: adult worms in RPMI 1640/Tween 80/DMSO, observed up to 72 h, duplicate wells; for Activity/toxicity towards schistosomes (in words): adult worms
Experimental: Experiments on the viability of Schistosoma mansoni adult worms. In vitro tests were performed on Schistosoma mansoni NMRI strains. This parasite is lab maintained on Biomphalaria glabrata (BRE strain) as intermediate mollusc host and Golden Hamster (Janvier Labs, Le Genest-Saint-Isle, France) as definitive vertebrate host. Methods, for molluscs’ and hamsters’ infection and for parasite recovery, were previously described. Adult worms were recovered by hepatic perfusion technique between 42 and 47 days post hamster exposition to parasite larvae. Worms were carefully collected and disposed in 12-well Falcon® plate containing 2 mL of RPMI 1640 (supplemented with L-glutamine and Hepes 25 mM). The plates containing a minimum of 15 worms by well were then placed in an incubator chamber at 37 °C and 5% CO2. The worms sex ratio was almost balanced in each well. The drug was first dissolved in DMSO (Sigma-Aldrich) to give a 100 mg/mL mother solution. Then the stock solution was complemented with Tween 80 and RPMI to obtain the following final ratio dilution: RPMI 1640/Tween 80/DMSO and 1000/0.95/3.8, v/v/v.
All molecules were tested at a final concentration of 100 µg/mL and 10 µg/mL. A negative control consisted in adding the same RPMI 1640/Tween 80/DMSO solution, but without any drug and a positive control consisted in adding praziquantel. All molecules and control were performed in duplicates of well. The worm viability was checked after 1, 2, 3, 4, 5, 6, 7, 8, 24, 48, and 72 h after adding the molecule.

[2] = Homolysis kinetics of alkoxyamines by EPR (growth of nitroxide); format: physicochemical; conditions: mixture of diastereoisomers; for Homolysis rate constant kd: 0.1 mM alkoxyamine, O2 as alkyl radical scavenger; for Activation energy Ea: by Equation (2) from kd and T, A = 2.4 10^14 s^−1
Experimental: Preparation of alkoxyamines and reference samples. All reagents including anhydrous solvents used for the chemical synthesis were purchased from commercially available sources such as Merck, TCI, and Fluorochem, and were used without further purification. All air and/or water-sensitive reactions were carried out under an argon atmosphere with dry solvents using standard syringe-cannula/septa techniques. Routine monitoring of reactions was performed using Merck Silica gel 60 F254, aluminum-supported TLC plates; spots were visualized using UV light and ethanolic acidic para-anisaldehyde solution or ethanolic phosphomolybdic solution, followed by heating. Purifications by means of column chromatography were performed with Silica gel 60 (230–400 mesh). ^1H, ^13C, and ^19F NMR spectra were obtained in CDCl3, MeOD (with residual H2O), D2O, DMSO-d6, or C6D6 solutions on by using Bruker AC400 (400 MHz) and Bruker AC300 (300 MHz) spectrometers. High-resolution mass spectra (HRMS) have been performed using a SYNAPT G2 HDMS (Waters) mass spectrometer equipped with a pneumatically assisted atmospheric pressure ionization (API) source. The sample was ionized in positive electrospray mode under the following conditions: electrospray voltage: 2.8 kV; port voltage: 20 V; Nebulizing gas flow rate (nitrogen): 100 L/h or in negative electrospray mode under the following conditions: electrospray voltage: −2.27 kV; port voltage: −20 V; Nebulizing gas flow rate (nitrogen): 100 L/h. The mass spectra (MS) were obtained with a time-of-flight (TOF) analyzer. The exact mass measurements were carried out in triplicate with external calibration. Homolysis constants were measured by EPR on an EMX Bruker spectrometer from 10^−4 M samples in tertbutyl benzene or in a mixture of H2O-nPrOH (1:1; v:v).
Kinetic experiments. Kinetics of A1–A7 (Scheme 2) for series L and D are performed by monitoring the growth of nitroxide by Electron Paramagnetic Resonance (X-band EMX Bruker machine) in tert-butylbenzene and a water/n-PrOH (for a good solubility of the alkoxyamine) as solvents and using O2 as alkyl radical scavenger to suppress the back reaction (kc in Scheme 2) as already reported. Homolysis rate constants kd are given by Equation (1) ([nitroxide]∞ = [alkoxyamine]0 = 0.1 mM, see Table S1) and the subsequent activation energies Ea given by Equation (2). (1) lnnitroxide∞−nitroxidet/nitroxide∞=−kd·t, (2) Ea=−RTlnkd/A.

[3] = C–ON bond homolysis in t-BuPh, EPR, T (°C): A1L 128.0, A3L 125.0, A5L 130.0, A6L 125, A7L 126.5, A1D 122.5, A3D 119.8, A5D 130
[4] = C–ON bond homolysis in water/n-PrOH v/v 1:1, EPR, T (°C): A1L 95.1, A3L 94.5, A4L 94.6, A5L 94.0, A6L 94.8, A7L 94.3, A1D 93.5, A3D 92.6, A4D 95.0, A5D 94.6

Row | Molecule | Time to Kill 50% of Parasites [1] [h] | Time to Kill 100% of Parasites [1] [h] | Activity/toxicity towards schistosomes (in words) [1] | Homolysis rate constant kd [2, 3] | Homolysis rate constant kd [2, 4] | Activation energy Ea ([2]; in t-BuPh) [kcal/mol] | Activation energy Ea ([2]; in water/n-PrOH v/v 1:1) [kcal/mol] | Time to Kill 50% of Parasites ([1]; listed as praziquantel) [h]
1 | 4-(((S)-1-(((S)-1-(((S)-1-carboxy-2-phenylethyl)amino)-3-methyl-1-oxobutan-2-yl)amino)-1-oxo-3-phenylpropan-2-yl)amino)-4-oxobutanoic acid [P10L] | 6 | 24 | some activity towards schistosomes | – | – | – | – | –
2 | CC(ON1C(C)(C)CCCC1(C)C)c1ccc(NC(=O)[C@@H](Cc2ccccc2)NC(=O)OC(C)(C)C)cc1 (mixture of isomers) [A1D, tert-butyl ((2R)-1-oxo-3-phenyl-1-((4-(1-((2,2,6,6-tetramethylpiperidin-1-yl)oxy)ethyl)phenyl)amino)propan-2-yl)carbamate] | – | – | – | 9.6 10^−4 s^−1 | 1.0 10^−4 s^−1 | 31.6 | 30.83 | –
3 | CC(ON1C(C)(C)CCCC1(C)C)c1ccc(NC(=O)[C@H](Cc2ccccc2)NC(=O)OC(C)(C)C)cc1 (mixture of isomers) [A1L, tert-butyl ((2S)-1-oxo-3-phenyl-1-((4-(1-((2,2,6,6-tetramethylpiperidin-1-yl)oxy)ethyl)phenyl)amino)propan-2-yl)carbamate] | – | – | – | 11.0 10^−4 s^−1 | 1.5 10^−4 s^−1 | 31.81 | 30.69 | –
4 | CC(ON1C(C)(C)CCCC1(C)C)c1ccc(NC(=O)[C@H](Cc2ccccc2)NC(=O)[C@@H](NC(=O)[C@H](Cc2ccccc2)NC(=O)OC(C)(C)C)C(C)C)cc1 (stereo partly drawn) [A3L, tert-butyl ((2S)-1-(((2S)-3-methyl-1-oxo-1-(((2S)-1-oxo-3-phenyl-1-((4-(1-((2,2,6,6-tetramethylpiperidin-1-yl)oxy)ethyl)phenyl)amino)propan-2-yl)amino)butan-2-yl)amino)-1-oxo-3-phenylpropan-2-yl)carbamate] | – | – | inactive; also recorded: non-activity | 8.4 10^−4 s^−1 | 1.8 10^−4 s^−1 | 31.79 | 30.78 | –
5 | CC(ON1C(C)(C)CCCC1(C)C)c1ccc(NC(=O)[C@H](Cc2ccccc2)NC(=O)[C@@H](NC(=O)[C@@H](N)Cc2ccccc2)C(C)C)cc1.O=C(O)C(F)(F)F (stereo partly drawn) [A4L, (2S)-1-(((2S)-3-methyl-1-oxo-1-(((2S)-1-oxo-3-phenyl-1-((4-(1-((2,2,6,6-tetramethylpiperidin-1-yl)oxy)ethyl)phenyl)amino)propan-2-yl)amino)butan-2-yl)amino)-1-oxo-3-phenylpropan-2-aminium trifluoroacetate] | 2 | 24 | most efficient molecules | – | 1.0 10^−4 s^−1 | – | 30.9 | –
6 | CC(ON1C(C)(C)CCCC1(C)C)c1ccc(NC(=O)[C@H](Cc2ccccc2)NC(=O)[C@@H](NC(=O)[C@@H](N)Cc2ccccc2)C(C)C)cc1 (stereo partly drawn) [A5L, (2S)-2-((S)-2-amino-3-phenylpropanamido)-3-methyl-N-((2S)-1-oxo-3-phenyl-1-((4-(1-((2,2,6,6-tetramethylpiperidin-1-yl)oxy)ethyl)phenyl)amino)propan-2-yl)butanamide] | 2 | 7 | most efficient molecules | 18 10^−4 s^−1 | 1.3 10^−4 s^−1 | 31.57 | 30.66 | –
7 | CC(ON1C(C)(C)CCCC1(C)C)c1ccc(NC(=O)[C@H](Cc2ccccc2)NC(=O)[C@@H](NC(=O)[C@H](Cc2ccccc2)NC(=O)CCC(=O)OCc2ccccc2)C(C)C)cc1 (stereo partly drawn) [A6L, Benzyl 4-(((2S)-1-(((2S)-3-methyl-1-oxo-1-(((2S)-1-oxo-3-phenyl-1-((4-(1-((2,2,6,6-tetramethylpiperidin-1-yl)oxy)ethyl)phenyl)amino)propan-2-yl)amino)butan-2-yl)amino)-1-oxo-3-phenylpropan-2-yl)amino)-4-oxobutanoate] | 24 | 48 | less active; also recorded: lower activity | 11.0 10^−4 s^−1 | 1.1 10^−4 s^−1 | 31.57 | 30.86 | –
8 | CC(ON1C(C)(C)CCCC1(C)C)c1ccc(NC(=O)[C@H](Cc2ccccc2)NC(=O)[C@@H](NC(=O)[C@H](Cc2ccccc2)NC(=O)CCC(=O)O)C(C)C)cc1 (stereo partly drawn) [A7L, 4-(((2S)-1-(((2S)-3-methyl-1-oxo-1-(((2S)-1-oxo-3-phenyl-1-((4-(1-((2,2,6,6-tetramethylpiperidin-1-yl)oxy)ethyl)phenyl)amino)propan-2-yl)amino)butan-2-yl)amino)-1-oxo-3-phenylpropan-2-yl)amino)-4-oxobutanoic acid] | 24 | 48 | less active | 15.0 10^−4 s^−1 | – | 31.45 | 30.93 | –
9 | O=C(C1CCCCC1)N1CC(=O)N2CCc3ccccc3C2C1 (stereo not drawn) [PZQ, praziquantel, reference compound] | 1 | 1 | – | – | – | – | – | < 1
10 | O=C(O)C(F)(F)F [TFA, reference compound] | 7 | 24 | – | – | – | – | – | –
11 | (S)-1-(((S)-1-(((S)-1-((4-ethylphenyl)amino)-1-oxo-3-phenylpropan-2-yl)amino)-3-methyl-1-oxobutan-2-yl)amino)-1-oxo-3-phenylpropan-2-aminium trifluoroacetate [P22L] | – | – | no activity | – | – | – | – | –
12 | (S)-1-(((S)-1-(((S)-1-carboxy-2-phenylethyl)amino)-3-methyl-1-oxobutan-2-yl)amino)-1-oxo-3-phenylpropan-2-aminium trifluoroacetate [P11L] | – | – | no activity | – | – | – | – | –
13 | (S)-2-((S)-2-amino-3-phenylpropanamido)-N-((S)-1-((4-ethylphenyl)amino)-1-oxo-3-phenylpropan-2-yl)-3-methylbutanamide [P25L] | – | – | no activity | – | – | – | – | –
14 | Benzyl 4-(((S)-1-(((S)-1-(((S)-1-((4-ethylphenyl)amino)-1-oxo-3-phenylpropan-2-yl)amino)-3-methyl-1-oxobutan-2-yl)amino)-1-oxo-3-phenylpropan-2-yl)amino)-4-oxobutanoate [P23L] | – | – | no activity | – | – | – | – | –
15 | L-phenylalanyl-L-valyl-L-phenylalanine [P18L] | – | – | no activity | – | – | – | – | –
